Test results as given in ChEMBL document CHEMBL5321233, “Biological activity of 1,2,3-triazole-2-amino-1,4-naphthoquinone derivatives and their evaluation as therapeutic strategy for malaria control” (Eur J Med Chem, 2023).
The source made the active and inactive calls. No cut-off for these calls is given here.

What was measured:
HepG2 = assay: Cytotoxicity against human HepG2 cells incubated for 24 hrs by MTT assay; assay type: functional
[1] = Acute toxicity in Albino Swiss mouse assessed as behavioural toxicity at 300 mg/kg, po administered as single dose measured after 14 days; assay type: organism-based; settings: in vivo, 336 h, time 14 day
[2] = Acute toxicity in Albino Swiss mouse assessed as escape reaction at 300 mg/kg, po administered as single dose measured after 14 days; assay type: organism-based; settings: in vivo, 336 h, time 14 day
[3] = Acute toxicity in Albino Swiss mouse assessed as change in relative weight of liver at 300 mg/kg, po administered as single dose measured after 14 days; assay type: organism-based; settings: in vivo, 336 h, time 14 day
[4] = Acute toxicity in Albino Swiss mouse assessed as change in motor function at 300 mg/kg, po administered as single dose measured after 14 days; assay type: organism-based; settings: in vivo, 336 h, time 14 day
[5] = Cytotoxicity against African green monkey Vero cells incubated for 24 hrs by MTT assay; assay type: toxicity, cell-based; settings: chlorocebus sabaeus
[6] = Acute toxicity in Albino Swiss mouse assessed as signs of cyanosis at 300 mg/kg, po administered as single dose measured after 14 days; assay type: organism-based; settings: in vivo, 336 h, time 14 day
[7] = Acute toxicity in Albino Swiss mouse assessed as aggressiveness at 300 mg/kg, po administered as single dose measured after 14 days; assay type: organism-based; settings: in vivo, 336 h, time 14 day
[8] = Octanol-water partition coefficient, logP of the compound; assay type: physicochemical
[9] = Acute toxicity in Albino Swiss mouse assessed as change in urination volume at 300 mg/kg, po administered as single dose measured after 14 days; assay type: organism-based; settings: in vivo, 336 h, time 14 day
[10] = Selectivity index, ratio of CC50 for human HepG2 cells to IC50 for chloroquine-resistant Plasmodium falciparum W2 infected in human erythrocytes; assay type: toxicity, cell-based; settings: read-out: Ratio CC50/IC50
[11] = Hemolytic activity in human red blood cells assessed as hemoglobin release at 250 to 15.6 uM incubated for 60 mins by spectrophotometry; assay type: toxicity, cell-based, Erythrocyte; settings: dose 250-15.6 µM, read-out: Activity
[12] = Acute toxicity in Albino Swiss mouse assessed as change in relative weight of spleen at 300 mg/kg, po administered as single dose measured after 14 days; assay type: organism-based; settings: in vivo, 336 h, time 14 day
[13] = Acute toxicity in Albino Swiss mouse assessed as signs of pallor at 300 mg/kg, po administered as single dose measured after 14 days; assay type: organism-based; settings: in vivo, 336 h, time 14 day
[14] = Acute toxicity in Albino Swiss mouse assessed as change in defecation at 300 mg/kg, po administered as single dose measured after 14 days; assay type: organism-based; settings: in vivo, 336 h, time 14 day
Plasmodium falciparum [15] = assay: Antimalarial activity against chloroquine-resistant Plasmodium falciparum W2 infected in human erythrocytes assessed as parasite growth inhibition incubated for 48 hrs by geimsa staining based microscopy; assay type: functional, organism-based; settings: W2, Erythrocyte
[16] = Acute toxicity in Albino Swiss mouse assessed as animal mortality at 300 mg/kg, po administered as single dose measured after 14 days; assay type: organism-based; settings: in vivo, 336 h, time 14 day
Plasmodium berghei [17] = assay: Antimalarial activity against Plasmodium berghei ANKA infected in Albino Swiss mouse assessed as half-survival time at 30 mg/kg, po administered for 4 consecutive days measured for 30 days (reference value: 16 day); assay type: functional; settings: time 30 day
[18] = Acute toxicity in Albino Swiss mouse assessed as change in relative weight of kidney at 300 mg/kg, po administered as single dose measured after 14 days; assay type: organism-based; settings: in vivo, 336 h, time 14 day
[19] = Selectivity index, ratio of CC50 for African green monkey Vero cells to IC50 for chloroquine-resistant Plasmodium falciparum W2 infected in human erythrocytes; assay type: toxicity, cell-based; settings: read-out: Ratio CC50/IC50
[20] = Acute toxicity in Albino Swiss mouse assessed as change in sensory function at 300 mg/kg, po administered as single dose measured after 14 days; assay type: organism-based; settings: in vivo, 336 h, time 14 day
[21] = Acute toxicity in Albino Swiss mouse assessed as contortions at 300 mg/kg, po administered as single dose measured after 14 days; assay type: organism-based; settings: in vivo, 336 h, time 14 day
[22] = Acute toxicity in Albino Swiss mouse assessed as signs of toxicity at 300 mg/kg, po administered as single dose measured after 14 days; assay type: organism-based; settings: in vivo, 336 h, time 14 day
[23] = Acute toxicity in Albino Swiss mouse assessed as change in diarrhea at 300 mg/kg, po administered as single dose measured after 14 days; assay type: organism-based; settings: in vivo, 336 h, time 14 day
[24] = Acute toxicity in Albino Swiss mouse assessed as change in urine color at 300 mg/kg, po administered as single dose measured after 14 days; assay type: organism-based; settings: in vivo, 336 h, time 14 day
[25] = Hemolytic activity in human red blood cells type A assessed as hemoglobin release at 500 to 1000 uM incubated for 60 mins by spectrophotometry; assay type: toxicity, cell-based, Erythrocyte; settings: dose 500-1000 µM, read-out: Activity
[26] = Acute toxicity in Albino Swiss mouse assessed as signs of hyperemia at 300 mg/kg, po administered as single dose measured after 14 days; assay type: organism-based; settings: in vivo, 336 h, time 14 day
[27] = Toxicity in Albino Swiss mouse infected with Plasmodium berghei ANKA assessed as mortality rate at 30 mg/kg, po administered for 4 consecutive days measured for 14 days relative to control; assay type: organism-based; settings: in vivo, time 14 day, read-out: Activity
[28] = Acute toxicity in Albino Swiss mouse assessed as macroscopic alterations in liver at 300 mg/kg, po administered as single dose measured after 14 days by H and E staining based analysis; assay type: organism-based; settings: in vivo, 336 h, time 14 day
Plasmodium falciparum [29] = assay: Induction of morphological changes in chloroquine-resistant Plasmodium falciparum W2 trophozoites assessed as loss of membrane integrity by TEM analysis; assay type: functional, organism-based
Plasmodium falciparum [30] = assay: Induction of morphological changes in chloroquine-resistant Plasmodium falciparum W2 trophozoites assessed as degraded cytoplasm by TEM analysis relative to control; assay type: functional
Plasmodium berghei [31] = assay: Antimalarial activity against Plasmodium berghei ANKA infected in Albino Swiss mouse assessed as reduction in parasitemia at 30 mg/kg, po administered for 4 consecutive days measured after day 7 relative to control; assay type: functional; set-up: scale not given: the % may be the effect or the level left; settings: time 7 day
[32] = Acute toxicity in Albino Swiss mouse assessed as pathological changes in kidney at 300 mg/kg, po administered as single dose measured after 14 days by H and E staining based analysis; assay type: organism-based; settings: in vivo, 336 h, time 14 day
[33] = Acute toxicity in Albino Swiss mouse assessed as pathological lesions in liver at 300 mg/kg, po administered as single dose measured after 14 days by H and E staining based analysis; assay type: organism-based; settings: in vivo, 336 h, time 14 day
Plasmodium falciparum [34] = assay: Induction of morphological changes in chloroquine-resistant Plasmodium falciparum W2 trophozoites assessed as dense cytoplasm with undefined organelles by TEM analysis; assay type: functional, organism-based
Plasmodium falciparum [35] = assay: Induction of morphological changes in chloroquine-resistant Plasmodium falciparum W2 trophozoites assessed as deteriorated food vacuole by TEM analysis; assay type: functional, organism-based
[36] = Acute toxicity in Albino Swiss mouse assessed as pathological damage in spleen at 300 mg/kg, po administered as single dose measured after 14 days by H and E staining based analysis; assay type: organism-based; settings: in vivo, 336 h, time 14 day

Row | Compound | CC50 (HepG2) | Activity [1] | Activity [2] | Activity [3] | Activity [4] | CC50 at 24 h [5] | Activity [6] | Activity [7] | logP [8] | Activity [9] | selectivity ratio [10] | hemolysis at 1 h [11] | Activity [12] | Activity [13] | Activity [14] | IC50 (Plasmodium falciparum [15]) | Activity [16] | Survival (Plasmodium berghei [17]) | Activity [18] | selectivity ratio [19] | further results
1 | O=C1C=C(NCCn2cc(-c3ccccc3)nn2)C(=O)c2ccccc21 | 278 µM | Non-Toxic | Non-Toxic | Non-Toxic | Non-Toxic | 116 µM | Non-Toxic | Non-Toxic | 2.67 | Non-Toxic | 343 | < 40% | Non-Toxic | Non-Toxic | Non-Toxic | 0.81 µM | Non-Toxic | 13 days | Non-Toxic | 143 | Activity [20]: Non-Toxic; Activity [21]: Non-Toxic; Activity [22]: Non-Toxic; Activity [23]: Non-Toxic; Activity [24]: Non-Toxic; hemolysis at 1 h, up to 1000 µM [25]: > 40%; Activity [26]: Non-Toxic
2 | Cc1ccc(-c2cn(CCNC3=CC(=O)c4ccccc4C3=O)nn2)cc1 | 104 µM | Non-Toxic | Non-Toxic | Non-Toxic | Non-Toxic | 207 µM | Non-Toxic | Non-Toxic | 3.12 | Non-Toxic | 6.88 | < 40% | Non-Toxic | Non-Toxic | Non-Toxic | 15.1 µM | Non-Toxic | 14 days | Non-Toxic | 13.7 | mortality at 336 h [27]: 100%; Activity [20]: Non-Toxic; Activity [21]: Non-Toxic; Activity [22]: Non-Toxic; Activity [23]: Non-Toxic; Activity [24]: Non-Toxic; hemolysis at 1 h, up to 1000 µM [25]: > 40%; Activity [26]: Non-Toxic
3 | COc1ccc(-c2cn(CCNC3=CC(=O)c4ccccc4C3=O)nn2)cc1 | 289 µM | Non-Toxic | Non-Toxic | Non-Toxic | Non-Toxic | 401 µM | Non-Toxic | Non-Toxic | 2.72 | Non-Toxic | 68.8 | < 40% | Non-Toxic | Non-Toxic | Non-Toxic | 4.2 µM | Non-Toxic | 26 days | Non-Toxic | 95.8 | Activity [28]: Non-Toxic; Activity (Plasmodium falciparum [29]): Active; Activity (Plasmodium falciparum [30]): 100%; Activity (Plasmodium berghei [31]): 33%; Activity [32]: Non-Toxic; mortality at 336 h [27]: 20%; Activity [33]: Toxic; Activity (Plasmodium falciparum [34]): Active; Activity [20]: Non-Toxic; Activity (Plasmodium falciparum [35]): Active; Activity [21]: Non-Toxic; Activity [22]: Non-Toxic; Activity [23]: Non-Toxic; Activity [24]: Non-Toxic; Activity [36]: Non-Toxic; hemolysis at 1 h, up to 1000 µM [25]: > 40%; Activity [26]: Non-Toxic
4 | CC(C)(O)c1cn(CCNC2=CC(=O)c3ccccc3C2=O)nn1 | 233 µM | Non-Toxic | Non-Toxic | Non-Toxic | Non-Toxic | 188 µM | Non-Toxic | Non-Toxic | 1.38 | Non-Toxic | 35.3 | < 40% | Non-Toxic | Non-Toxic | Non-Toxic | 6.6 µM | Non-Toxic | 14 days | Non-Toxic | 28.5 | Activity [20]: Non-Toxic; Activity [21]: Non-Toxic; Activity [22]: Non-Toxic; Activity [23]: Non-Toxic; Activity [24]: Non-Toxic; hemolysis at 1 h, up to 1000 µM [25]: > 40%; Activity [26]: Non-Toxic
